From patent US20100168218A1 (priority 2005, published 2010)
Read-outs that look alike come from different tables or passages of the source.

Tests used:
[1] = test system: FAO in the ventrolateral hypothalamus (VLH); conditions: cited from earlier work
[2] = systemic FAO inhibition, rodents; cited from earlier work
[3] = test system: carnitine palmitoyltransferase-1 (CPT-1); conditions: Thupari et al.; cited from earlier work
[4] = C75 administration, separate studies; cited from earlier work
[5] = test system: MCF7 human breast cancer cells; experiment: Fatty acid oxidation: oxidation of [14C]palmitate to acid soluble products; format: cell-based
Source text: By “FAO-stimulator,” we mean a compound which stimulates FAO as measured by oxidation of [^14C]palmitate to acid soluble products in MCF7 human breast cancer cells as described by Watkins, et al., “Peroxisomal fatty acid beta-oxidation in HepG2 cells,” Arch Biochem Biophys, 289: 329-336 (1991). A compound whose Vmax is at least 125% of vehicle control is defined as an FAO stimulator.

[6] = Weight loss, food intake and indirect calorimetry in lean female Balb/C mice, 60 mg/kg; format: in vivo; conditions: for Metabolic Mechanism (indirect calorimetry): RER / Metabolic Mechanism (indirect calorimetry): VO2: compared to pair-fed animals; for % Maximum Reduction in Food Intake: day 1; for % Maximum Reduction in Food Intake / % Max. Wt Loss: 60 mg/kg
Description: Compounds 4 and 5 were administered to pair-fed mice, and various biological properties were tested for. The results are summarized below:
(§1) In contrast, it stimulated FAO by 150% of control at 8.4 μg/ml (28 μM) and CPT-1 activity by 150% of control at 20 μg/ml (˜60 μM). In lean female Balb/C mice, a single ip dose of 60 mg/kg caused nearly 8% weight loss within 24 hours along with a 68% reduction in food intake. […] Compound 5, with a different chemical structure, has similar biological characteristics to Compound 4.

human FAS = human FAS (Homo sapiens, UniProt P49327); experiment: FAS inhibition assay (standard and slow-binding); format: biochemical
human FAS, sequence (P49327 whole entry): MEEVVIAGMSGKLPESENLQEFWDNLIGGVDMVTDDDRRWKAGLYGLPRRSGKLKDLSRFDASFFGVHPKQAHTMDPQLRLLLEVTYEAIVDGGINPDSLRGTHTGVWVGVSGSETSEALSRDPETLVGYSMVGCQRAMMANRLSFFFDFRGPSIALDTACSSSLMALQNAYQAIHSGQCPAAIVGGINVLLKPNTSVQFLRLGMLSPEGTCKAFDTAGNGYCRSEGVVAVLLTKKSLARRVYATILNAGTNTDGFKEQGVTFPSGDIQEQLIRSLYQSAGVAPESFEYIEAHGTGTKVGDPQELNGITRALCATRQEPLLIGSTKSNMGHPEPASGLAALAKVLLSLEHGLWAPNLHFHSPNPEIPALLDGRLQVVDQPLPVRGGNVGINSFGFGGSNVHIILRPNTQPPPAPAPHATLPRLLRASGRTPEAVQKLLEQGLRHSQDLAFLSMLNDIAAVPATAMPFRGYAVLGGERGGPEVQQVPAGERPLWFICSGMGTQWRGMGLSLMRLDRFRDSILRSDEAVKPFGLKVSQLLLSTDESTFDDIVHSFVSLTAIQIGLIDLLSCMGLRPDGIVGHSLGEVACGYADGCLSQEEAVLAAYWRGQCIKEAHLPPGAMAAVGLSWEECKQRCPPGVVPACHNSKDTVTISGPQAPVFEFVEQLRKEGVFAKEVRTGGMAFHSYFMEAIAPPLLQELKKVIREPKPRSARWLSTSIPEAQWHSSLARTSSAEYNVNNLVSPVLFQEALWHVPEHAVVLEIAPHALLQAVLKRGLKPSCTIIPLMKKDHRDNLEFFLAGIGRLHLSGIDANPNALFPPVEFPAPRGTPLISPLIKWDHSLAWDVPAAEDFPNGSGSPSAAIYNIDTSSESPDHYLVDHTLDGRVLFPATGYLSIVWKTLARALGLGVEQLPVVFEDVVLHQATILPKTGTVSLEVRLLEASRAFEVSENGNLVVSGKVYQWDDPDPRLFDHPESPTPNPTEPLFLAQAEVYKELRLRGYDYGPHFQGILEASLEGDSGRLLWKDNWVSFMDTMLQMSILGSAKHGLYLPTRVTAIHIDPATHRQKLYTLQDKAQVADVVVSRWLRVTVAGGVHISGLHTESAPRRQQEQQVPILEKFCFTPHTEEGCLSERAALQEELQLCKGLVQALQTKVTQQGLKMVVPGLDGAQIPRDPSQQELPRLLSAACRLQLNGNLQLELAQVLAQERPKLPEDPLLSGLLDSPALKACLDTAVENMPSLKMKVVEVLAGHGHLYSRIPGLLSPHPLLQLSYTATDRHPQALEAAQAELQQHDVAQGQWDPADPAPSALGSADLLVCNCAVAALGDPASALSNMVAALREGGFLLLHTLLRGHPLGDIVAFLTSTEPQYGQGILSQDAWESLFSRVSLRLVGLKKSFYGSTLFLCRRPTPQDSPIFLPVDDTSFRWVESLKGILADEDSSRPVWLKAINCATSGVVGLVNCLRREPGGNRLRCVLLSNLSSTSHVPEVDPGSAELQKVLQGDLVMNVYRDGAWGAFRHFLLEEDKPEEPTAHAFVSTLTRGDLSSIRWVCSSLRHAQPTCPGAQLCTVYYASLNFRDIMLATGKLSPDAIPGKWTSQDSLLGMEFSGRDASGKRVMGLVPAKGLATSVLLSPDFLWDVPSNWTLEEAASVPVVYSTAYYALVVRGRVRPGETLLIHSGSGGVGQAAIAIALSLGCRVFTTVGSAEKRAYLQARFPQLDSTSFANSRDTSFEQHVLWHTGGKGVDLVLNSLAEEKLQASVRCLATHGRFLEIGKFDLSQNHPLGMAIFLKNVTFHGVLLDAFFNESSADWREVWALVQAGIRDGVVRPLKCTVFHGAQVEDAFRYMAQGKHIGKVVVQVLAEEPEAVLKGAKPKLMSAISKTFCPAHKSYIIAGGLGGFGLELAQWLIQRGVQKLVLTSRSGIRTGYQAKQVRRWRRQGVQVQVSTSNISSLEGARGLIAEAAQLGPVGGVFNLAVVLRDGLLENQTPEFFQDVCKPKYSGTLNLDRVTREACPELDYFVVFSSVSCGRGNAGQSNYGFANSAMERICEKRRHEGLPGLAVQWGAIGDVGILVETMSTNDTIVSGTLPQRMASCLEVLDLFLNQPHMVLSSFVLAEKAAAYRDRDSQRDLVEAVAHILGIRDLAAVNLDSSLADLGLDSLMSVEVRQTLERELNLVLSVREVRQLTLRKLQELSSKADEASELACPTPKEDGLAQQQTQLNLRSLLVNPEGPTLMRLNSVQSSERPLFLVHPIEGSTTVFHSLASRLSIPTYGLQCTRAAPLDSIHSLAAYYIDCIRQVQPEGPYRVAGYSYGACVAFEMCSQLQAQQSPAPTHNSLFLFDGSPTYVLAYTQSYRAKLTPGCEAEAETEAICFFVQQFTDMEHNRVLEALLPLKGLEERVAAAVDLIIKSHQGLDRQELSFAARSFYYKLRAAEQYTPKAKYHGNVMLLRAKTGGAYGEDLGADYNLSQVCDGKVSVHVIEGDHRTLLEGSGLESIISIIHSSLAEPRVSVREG
Description: as §1

[7] = Oral 100 mg/kg in diet-induced obese mice vs pair-fed and control animals (FIG. 3); format: in vivo
Description: In this experiment, compound 4 was administered orally at 100 mg/kg, in 35 μl DMSO to diet-induced obese mice, 5 animals per group.

CPT-1 = CPT-1 activity in digitonin permeabilized cells; format: cell-based
[8] = portal vein infusion, 18 h chow deprived rats; cited from earlier work
[9] = concentration that yields a 50% increase in fatty acid oxidation over controls, linear regression analysis, read-out: FAO SC150
[10] = slow binder requires preincubation at 37° C. prior to FAS assay, read-out: FAS Inhibition IC50
[11] = single ip dose of 60 mg/kg, within 24 hours, lean female Balb/C mice

Compound: C=CCCC(=O)O [Compound 4-PA, 4-pentanoic acid]
- weight or carcass composition ([1]; after 2 weeks of central FAO inhibition, rats): no significant changes in weight or carcass composition
- reduction of FAO in the VLH ([1]; infusion for 14 days into the VLH of rats): 37%

Compound: C[N+](C)(C)C[C@H](O)CC(=O)[O-] [L-carnitine]
- food intake or animal weight ([1]; infusion into the VLH of rats): did not affect food intake or animal weight
- increase of FAO in the VLH over control levels ([1]; infusion into the VLH of rats): 28%

Compound: O=C(O)CS [mercaptoacetate]
- feeding [2]: Increased feeding

Compound: C=C1C(=O)O[C@@H](CCCCCCCC)[C@@H]1C(=O)O (relative stereo) [Compound C75, trans-tetrahydro-3-methylene-2-oxo-5-n-octyl-4-furancarboxylic]
- CPT-1 activity [3]: stimulates carnitine palmitoyltransferase-1 (CPT-1) activity
- energy expenditure [4]: increases energy expenditure
- food intake [4]: reducing food intake

Compound: CCCCCCCCCCCCCCC1(C(=O)OC)CO1 (stereo not drawn) [methyl palmoxirate]
- feeding [2]: Increased feeding

Compound: CCCCC1OC(=O)C(=O)C1C(=O)OCC (stereo not drawn) [Compound 5]
- EC50 [5, 9]: 9 µg/mL
- Metabolic Mechanism (indirect calorimetry): RER [6]: ↓RER p = 0.01
- Metabolic Mechanism (indirect calorimetry): VO2 [6]: ↑VO2
- % Maximum Reduction in Food Intake ([6]; lean female Balb/C mice): 50% (day 1)
- % Max. Wt Loss ([6]; lean female Balb/C mice): 12.3%
- IC50 (human FAS; [10]): > 110 µM

Compound: C=CCC1(CC=C)C(=O)S[C@](C)(CCCCCCCC)C1=O [Compound 4]
- RER vs pair-fed group (FIG. 3D) ([7]; oral 100 mg/kg): significantly reduced compared to the pair-fed group on days 1, 3, and 4
- VO2 by indirect calorimetry vs pair-fed animals (FIG. 3C) ([7]; oral 100 mg/kg): maintained their VO2 compared to pair-fed animals on the first two days following treatment with a significant increase by day 3
- food intake vs control animals (FIG. 3B) ([7]; oral 100 mg/kg): ate significantly less food than control animals on the two days following treatment
- weight loss vs pair-fed animals (FIG. 3A) ([7]; oral 100 mg/kg in DMSO): lost more weight and maintained the weight loss longer than the pair-fed animals
- EC50 [5, 9]: 8.4 µg/mL
- EC50 ([5]; molar equivalent of 8.4 μg/ml, read-out: concentration stimulating FAO by 150% of control): 28 µM
- Metabolic Mechanism (indirect calorimetry): RER [6]: ↓RER p = 0.0057
- Metabolic Mechanism (indirect calorimetry): VO2 [6]: ↑VO2
- Metabolic Mechanism (indirect calorimetry): RER ([6]; listed as compound 4): reducing RER
- Metabolic Mechanism (indirect calorimetry): VO2 ([6]; listed as compound 4): increased VO2 compared to pair-fed animals
- % Maximum Reduction in Food Intake ([6]; lean female Balb/C mice): 68% (day 1)
- % Max. Wt Loss ([6]; lean female Balb/C mice): 7.9%
- reduction in food intake [6, 11]: 68%
- weight loss [6, 11]: ~8%
- CPT-1 Activity % (CPT-1; % of control at concentration for maximal CPT-1 activity, digitonin permeabilized cells): 150%
- concentration giving CPT-1 activity 150% of control (CPT-1; molar equivalent of 20 μg/ml): ~60 µM
- concentration for maximal CPT-1 activity (CPT-1; number in parenthesis, digitonin permeabilized cells): 20 µg/mL
- IC50 (human FAS; [10]): > 77.5 µM
- IC50 (human FAS; standard and slow-binding assays, read-out: human FAS inhibition: no inhibition at concentrations up to): > 310 µM

Compound: CCCCCCCC(=O)O [caprylic acid]
- FAO as measured by plasma β-hydroxybutyrate [8]: increased FAO
- reduction of the size of the first dark phase meal [8]: 38%
